In PubChem BioAssay (NCI):
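Where inhibition never reached the appropriate level, the endpoint shown equals the highest concentration tested. Otherwise, values were interpolated linearly from a five-concentration, 48-hour dose response in 96-well plates. TGI denotes the concentration required for complete inhibition of growth.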

How the values were obtained:
Test in all cases: growth of human tumour cells (NCI), 48 h
[1] = test system: 786-0 renal
[2] = test system: A498 renal
[3] = test system: A549 NSCLC
[4] = test system: ACHN renal
[5] = test system: BT-549 breast
[6] = test system: CAKI-1 renal
[7] = test system: CCRF-CEM leukemia
[8] = test system: COLO 205 colon
[9] = test system: DU-145 prostate
[10] = test system: EKVX NSCLC
[11] = test system: HCC-2998 colon
[12] = test system: HCT-116 colon
[13] = test system: HCT-15 colon
[14] = test system: HL-60(TB) leukemia
[15] = test system: HOP-62 NSCLC
[16] = test system: HOP-92 NSCLC
[17] = test system: HS 578T breast
[18] = test system: HT29 colon
[19] = test system: IGROV1 ovarian
[20] = test system: K-562 leukemia
[21] = test system: KM12 colon
[22] = test system: LOX IMVI melanoma
[23] = test system: M14 melanoma
[24] = test system: MALME-3M melanoma
[25] = test system: MCF7 breast
[26] = test system: MDA-MB-231 breast
[27] = test system: MDA-MB-435
[28] = test system: MDA-N
[29] = test system: MOLT-4 leukemia
[30] = test system: NCI-H226 lung
[31] = test system: NCI-H23 lung
[32] = test system: NCI-H460 lung
[33] = test system: NCI-H522 lung
[34] = test system: NCI/ADR-RES ovarian
[35] = test system: OVCAR-3 ovarian
[36] = test system: OVCAR-4 ovarian
[37] = test system: OVCAR-5 ovarian
[38] = test system: OVCAR-8 ovarian
[39] = test system: PC-3 prostate
[40] = test system: RPMI-8226 leukemia
[41] = test system: RXF 393 renal
[42] = test system: SF-268 CNS
[43] = test system: SF-295 CNS
[44] = test system: SF-539 CNS
[45] = test system: SK-MEL-2 melanoma
[46] = test system: SK-MEL-28 melanoma
[47] = test system: SK-MEL-5 melanoma
[48] = test system: SK-OV-3 ovarian
[49] = test system: SN12C renal
[50] = test system: SNB-19 CNS
[51] = test system: SNB-75 CNS
[52] = test system: SR leukemia
[53] = test system: SW-620 colon
[54] = test system: T-47D breast
[55] = test system: TK-10 renal
[56] = test system: U251 CNS
[57] = test system: UACC-257 melanoma
[58] = test system: UACC-62 melanoma
[59] = test system: UO-31 renal

## COc1ccc(C(CC(C)=O)c2c(O)c3ccccc3oc2=O)cc1OC (configuration not stated)
[1]
  TGI: > 100 µM
[2]
  TGI: > 100 µM
[3]
  TGI: > 100 µM
[4]
  TGI: > 100 µM
[5]
  TGI: > 100 µM
[6]
  TGI: > 100 µM
[7]
  TGI: > 100 µM
[8]
  TGI: > 100 µM
[9]
  TGI: > 100 µM
[10]
  TGI: > 100 µM
[11]
  TGI: > 100 µM
[12]
  TGI: > 100 µM
[13]
  TGI: > 100 µM
[14]
  TGI: > 100 µM
[15]
  TGI: > 100 µM
[16]
  TGI: > 100 µM
[17]
  TGI: > 100 µM
[18]
  TGI: > 100 µM
[19]
  TGI: > 100 µM
[20]
  TGI: > 100 µM
[21]
  TGI: > 100 µM
[22]
  TGI: > 100 µM
[23]
  TGI: > 100 µM
[24]
  TGI: > 100 µM
[25]
  TGI: > 100 µM
[26]
  TGI: > 100 µM
[27]
  TGI: > 100 µM
[28]
  TGI: > 100 µM
[29]
  TGI: > 100 µM
[30]
  TGI: > 100 µM
[31]
  TGI: > 100 µM
[32]
  TGI: > 100 µM
[33]
  TGI: > 100 µM
[34]
  TGI: > 100 µM
[35]
  TGI: > 100 µM
[36]
  TGI: > 100 µM
[37]
  TGI: > 100 µM
[38]
  TGI: > 100 µM
[39]
  TGI: > 100 µM
[40]
  TGI: > 100 µM
[41]
  TGI: > 100 µM
[42]
  TGI: > 100 µM
[43]
  TGI: > 100 µM
[44]
  TGI: > 100 µM
[45]
  TGI: > 100 µM
[46]
  TGI: > 100 µM
[47]
  TGI: > 100 µM
[48]
  TGI: > 100 µM
[49]
  TGI: > 100 µM
[50]
  TGI: > 100 µM
[51]
  TGI: > 100 µM
[52]
  TGI: > 100 µM
[53]
  TGI: > 100 µM
[54]
  TGI: > 100 µM
[55]
  TGI: > 100 µM
[56]
  TGI: > 100 µM
[57]
  TGI: > 100 µM
[58]
  TGI: > 100 µM
[59]
  TGI: > 100 µM

## COc1cccc2c(=O)c3c(n(C)c12)OC(C(C)C)C3 (configuration not stated)
[1]
  TGI: > 100 µM
[2]
  TGI: > 100 µM
[3]
  TGI: > 100 µM
[4]
  TGI: > 100 µM
[5]
  TGI: > 100 µM
[6]
  TGI: > 100 µM
[7]
  TGI: > 100 µM
[8]
  TGI: > 100 µM
[9]
  TGI: > 100 µM
[10]
  TGI: > 100 µM
[11]
  TGI: > 100 µM
[12]
  TGI: > 100 µM
[13]
  TGI: > 100 µM
[14]
  TGI: > 100 µM
[15]
  TGI: > 100 µM
[16]
  TGI: > 100 µM
[17]
  TGI: > 100 µM
[18]
  TGI: > 100 µM
[19]
  TGI: > 100 µM
[20]
  TGI: 86.2 µM
[21]
  TGI: > 100 µM
[22]
  TGI: > 100 µM
[23]
  TGI: > 100 µM
[24]
  TGI: > 100 µM
[25]
  TGI: > 100 µM
[26]
  TGI: > 100 µM
[27]
  TGI: > 100 µM
[28]
  TGI: > 100 µM
[29]
  TGI: > 100 µM
[30]
  TGI: > 100 µM
[31]
  TGI: > 100 µM
[32]
  TGI: > 100 µM
[33]
  TGI: > 100 µM
[34]
  TGI: > 100 µM
[35]
  TGI: > 100 µM
[36]
  TGI: 89.2 µM
[37]
  TGI: > 100 µM
[38]
  TGI: > 100 µM
[39]
  TGI: > 100 µM
[40]
  TGI: > 100 µM
[41]
  TGI: > 100 µM
[42]
  TGI: > 100 µM
[43]
  TGI: > 100 µM
[44]
  TGI: > 100 µM
[45]
  TGI: > 100 µM
[46]
  TGI: > 100 µM
[47]
  TGI: > 100 µM
[48]
  TGI: > 100 µM
[49]
  TGI: > 100 µM
[50]
  TGI: > 100 µM
[51]
  TGI: > 100 µM
[52]
  TGI: > 100 µM
[53]
  TGI: > 100 µM
[54]
  TGI: > 100 µM
[55]
  TGI: > 100 µM
[56]
  TGI: > 100 µM
[57]
  TGI: > 100 µM
[58]
  TGI: > 100 µM
[59]
  TGI: > 100 µM

## O=C1C(N2CCOCC2)=C(Cl)C(=O)c2ncccc21
[1]
  TGI: 3.24 µM
[2]
  TGI: > 10 µM
[3]
  TGI: > 10 µM
[4]
  TGI: 3.49 µM
[5]
  TGI: > 10 µM
[6]
  TGI: > 10 µM
[7]
  TGI: 2.16 µM
[8]
  TGI: 3.91 µM
[9]
  TGI: > 10 µM
[10]
  TGI: > 10 µM
[11]
  TGI: > 9.5 µM
[12]
  TGI: 3.1 µM
[13]
  TGI: 4.11 µM
[14]
  TGI: 0.534 µM
[15]
  TGI: > 10 µM
[16]
  TGI: 2.84 µM
[17]
  TGI: > 10 µM
[18]
  TGI: > 10 µM
[19]
  TGI: > 10 µM
[20]
  TGI: 5.03 µM
[21]
  TGI: > 5.35 µM
[22]
  TGI: 4.92 µM
[23]
  TGI: 4.97 µM
[24]
  TGI: 3.45 µM
[25]
  TGI: 3.59 µM
[26]
  TGI: 5.24 µM
[27]
  TGI: 3.22 µM
[28]
  TGI: 3.48 µM
[29]
  TGI: 3.19 µM
[30]
  TGI: > 10 µM
[31]
  TGI: 3.55 µM
[32]
  TGI: > 10 µM
[33]
  TGI: 2.85 µM
[34]
  TGI: > 10 µM
[35]
  TGI: 3.39 µM
[36]
  TGI: 2.89 µM
[37]
  TGI: > 10 µM
[38]
  TGI: > 5.73 µM
[39]
  TGI: > 10 µM
[40]
  TGI: 4.34 µM
[41]
  TGI: 2.91 µM
[42]
  TGI: > 7.37 µM
[43]
  TGI: > 10 µM
[44]
  TGI: > 10 µM
[45]
  TGI: 3.77 µM
[46]
  TGI: 4.67 µM
[47]
  TGI: 3.26 µM
[48]
  TGI: > 10 µM
[49]
  TGI: 3.15 µM
[50]
  TGI: > 10 µM
[51]
  TGI: > 10 µM
[52]
  TGI: 2.2 µM
[53]
  TGI: 3.72 µM
[54]
  TGI: 3.92 µM
[55]
  TGI: 4.71 µM
[56]
  TGI: > 10 µM
[57]
  TGI: 3.52 µM
[58]
  TGI: 5.51 µM
[59]
  TGI: > 5.86 µM
